Experimental data: PubChem BioAssay (NCI)
Where “and” joins values, the source holds several entries; their conditions need not be identical. Equal entries are not always repeated.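 48-hour exposure; five concentrations; linearly interpolated endpoints. The concentration for 50% growth inhibition is given as GI50. TGI: total growth inhibition.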 Calls of active or inactive are those of the source. No stated cut-off is given here; in the data, active means GI50 below about 0.43 µM; inactive means the rest.

Tests used:
Test in all cases: NCI tumour cell line growth inhibition, 48 h
M19-MEL melanoma = test system: M19-MEL melanoma
SNB-78 CNS = test system: SNB-78 CNS
KM20L2 colon = test system: KM20L2 colon
P388/ADR leukemia = test system: P388/ADR leukemia
DMS 273 small cell lung = test system: DMS 273 small cell lung
XF 498 CNS = test system: XF 498 CNS
MDA-N = test system: MDA-N
HOP-18 NSCLC = test system: HOP-18 NSCLC
LXFL 529 NSCLC = test system: LXFL 529 NSCLC
RXF-631 renal = test system: RXF-631 renal

SMILES | TGI (SNB-78 CNS) | TGI (DMS 273 small cell lung) | TGI (XF 498 CNS) | TGI (MDA-N) | TGI (HOP-18 NSCLC) | TGI (M19-MEL melanoma) | TGI (LXFL 529 NSCLC) [µM] | TGI (KM20L2 colon) | TGI (RXF-631 renal) [µM] | other results
CC1OC(O[C@@H]2C=C3CC[C@@H]4[C@H](CC[C@]5(C)[C@@H](c6ccc(=O)oc6)CC[C@]45O)[C@@]3(C)CC2)C(O)C(O)C1O (some centres undefined) | 0.003 µM | 0.003 µM | – | – | – | – | – | – | – | GI50 (M19-MEL melanoma): 0.00173 µM; GI50 (SNB-78 CNS): 0.000596 µM; GI50 (KM20L2 colon): 0.00131 µM; TGI (P388/ADR leukemia): 159 µM; GI50 (DMS 273 small cell lung): 0.000892 µM
COc1cc([C@@H]2c3cc4c(cc3[C@@H](OC3OC5COC(C)OC5C(O)C3O)[C@H]3COC(=O)[C@H]23)OCO4)cc(OC)c1O (some centres undefined) | 154 µM and 604 µM | 32.9 µM | 73.6 µM and 71.1 µM | 4.36 µM | 121 µM and 232 µM | 50.3 µM and 332 µM | 218 | 133 µM and 225 µM | – | GI50 (MDA-N): 18.6 µM; TGI (P388/ADR leukemia): 411 µM; GI50 (DMS 273 small cell lung): 58.8 µM
CN(C(=O)C12C3C4C1C1C2C3C41C#N)C(C)(C)C (centres undefined) | > 100 µM | > 100 µM | – | – | – | > 100 µM | > 100 | > 100 µM | > 100 | –
CN(C)NC(=O)NC12CC3CC(CC(C3)C1)C2 | > 100 µM | > 100 µM | > 100 µM | – | – | > 100 µM | > 100 | > 100 µM | – | –
COc1ccc2c(Cl)cc(NC(=S)Nc3ccccc3)nc2c1 | – | – | – | 32.4 µM | – | – | – | – | – | –
CSCSCC(CO)NC(=O)/C=C/c1c(C)[nH]c(=O)[nH]c1=O (centres undefined) | > 100 µM | > 100 µM | – | – | > 100 µM | > 100 µM | > 100 | > 100 µM | – | –
CCOC(=O)C(=O)CC(=O)C(Br)C(Br)c1ccc(Cl)cc1 (centres undefined) | > 100 µM | > 100 µM | – | – | – | 52.4 µM | 31.9 | > 100 µM | > 100 | –
Cc1nc2ccccc2c(=O)n1/N=C(\N=Nc1cc(Cl)ccc1Cl)c1ccc(N(C)C)cc1 | – | > 100 µM | 8.35 µM | – | > 100 µM | > 100 µM | > 100 | > 100 µM | – | –
COc1oc(C2C/C(=C/C(C)=C/C(C)=C/C(C)=C/c3ccc([N+](=O)[O-])cc3)CO2)c(C)c(=O)c1C (centres undefined) | – | – | – | 23.9 µM | – | – | – | – | – | –
CCOC(=O)Nc1cc2c(c(N)n1)N=C(c1ccc(Cl)cc1Cl)CN2 | – | – | – | 18.6 µM | – | – | – | – | – | –
CCNC(=O)O/N=C1\CCC2[C@@H]3CC=C4C[C@@H](OC(=O)NCC)CC[C@]4(C)C3CC[C@]12C (some centres undefined) | – | 3.54 µM | 0.911 µM | – | 6.73 µM | 4.79 µM | 2.2 | 12.7 µM | 17.3 | –
C(=C\c1ccc2ccccc2c1Nc1ccccc1)/c1ccccc1 | > 91.8 µM | > 100 µM | 40.6 µM | – | > 88.1 µM | > 100 µM | > 100 | > 100 µM | – | –
CCn1c(=O)nc2n(-c3ccc(SC)cc3)c3ccccc3nc-2c1=O | > 100 µM | > 100 µM | – | – | > 100 µM | > 100 µM | > 100 | > 100 µM | > 100 | –
CN(N=O)c1ccc(/C=C/c2ccnc3ccccc23)cc1 | – | – | – | > 100 µM | – | – | – | – | – | –
O=C(CC1(O)C(=O)Nc2ccccc21)c1cccc(O)c1 (centres undefined) | > 100 µM | > 100 µM | > 100 µM | – | – | > 100 µM | > 100 | > 100 µM | > 100 | –
CC(=O)O[C@H]1CSC[C@@H](OC(C)=O)C1[N+](=O)[O-] (some centres undefined) | > 100 µM | > 100 µM | – | – | > 100 µM | > 100 µM | 34 | > 100 µM | > 100 | –
Nc1nc(N)c(CCCCc2ccc([N+](=O)[O-])cc2)c(N)n1 | > 100 µM | > 100 µM | > 100 µM | > 100 µM | > 100 µM | > 100 µM | > 100 | > 100 µM | – | –
COc1ccc2c(c1O)[C@@]13CCCC=C1[C@@H](C2)N(C)CC3 | – | – | – | > 100 µM | – | – | – | – | – | –
COc1cc(O)c(C(=O)C2Cc3ccccc32)c(OC)c1 (centres undefined) | > 100 µM | > 100 µM | – | – | > 100 µM | – | > 100 | > 100 µM | > 100 | –
CCOC(=O)C(Oc1ccc(OC)c2c1C(=O)CCC2)c1ccccc1 (centres undefined) | > 100 µM | > 100 µM | > 100 µM | – | – | > 100 µM | > 100 | > 100 µM | – | –
COc1cc2c3c(c4ccc(O)cc4c2cc1OC)[C@@H](O)[C@@H]1CCCN1C3 | – | – | – | 0.145 µM | – | – | – | – | – | –

SMILES | TGI (SNB-78 CNS) | TGI (DMS 273 small cell lung) | TGI (XF 498 CNS) | TGI (MDA-N) | TGI (HOP-18 NSCLC) | TGI (M19-MEL melanoma) | TGI (LXFL 529 NSCLC) [µM] | TGI (KM20L2 colon) | TGI (RXF-631 renal) [µM] | other results
O=C1c2ccccc2C(=O)c2c1ccc1c3ccccc3n(-c3ccccc3)c21 | 49.3 µM | 34.4 µM | – | > 51.4 µM | 27.6 µM | 38.6 µM | 30.7 | 53.5 µM | 20.7 | –
O=C(O)CN(CCN(CC(=O)O)CC(=O)O)CC(=O)O.[Cu+2].[Na+] | – | – | – | > 100 µM | – | – | – | – | – | GI50 (MDA-N): > 100 µM
C#Cc1c(C)c(/C=C/C(C)=C\C(=O)OC)n(C)c1C | > 100 µM | > 100 µM | > 100 µM | – | > 100 µM | > 100 µM | > 100 | > 100 µM | – | –
CCN(CC)c1ccc(N=Nc2ccc(-c3nc4cccnc4s3)cc2)cc1 | > 100 µM | – | 72.1 µM | – | – | – | > 100 | > 100 µM | – | –
Cc1ccccc1NC(=O)C(=O)C(C(=O)c1ccccc1F)C1OC(=O)c2ccccc21 (centres undefined) | 80.8 µM | 64.5 µM | – | – | 79.4 µM | – | 75.3 | > 100 µM | 73.6 | –
C=C1C(C)C2C(Cc3ccccc3)NC(=O)C23C(OC(C)=O)C=CC(C)(O)C(=O)C(C)C/C=C/C3C1O (centres undefined) | 1.55 µM | 73.9 µM and > 500 µM | 28.5 µM | 21.4 µM and > 162 µM | 1.09 µM and 0.117 µM | 93.4 µM and > 500 µM | 96.4 | 99.2 µM and > 500 µM | – | GI50 (MDA-N): 1.75 µM; GI50 (HOP-18 NSCLC): 0.0404 µM and 0.05 µM; GI50 (M19-MEL melanoma): 57.3 µM; GI50 (KM20L2 colon): 0.275 µM; TGI (P388/ADR leukemia): 90.3 µM; GI50 (DMS 273 small cell lung): 0.05 µM
N#Cc1c(N)oc2cc3c(C#N)c(N)oc3cc12 | – | > 100 µM | – | – | > 100 µM | > 100 µM | > 100 | > 100 µM | > 100 | –
CCc1ccc([OH2+])c(C(=O)[O-])c1.CCc1ccc([OH2+])c(C(=O)[O-])c1.CCc1ccc([OH2+])c(C(=O)[O-])c1.CCc1ccc([OH2+])c(C(=O)[O-])c1.[Cu+2].[Cu+2] | – | – | – | > 100 µM | – | – | – | – | – | GI50 (MDA-N): > 71.1 µM
O=C1N(c2ccc(Cl)cc2)C(=O)C2(SC=NN2Cc2ccccc2)N1c1ccc(Cl)cc1 (centres undefined) | > 100 µM | – | 94.4 µM | – | > 100 µM | > 100 µM | > 100 | > 100 µM | > 100 | –
COc1cc2c3c(c4cc(OC)c(OC)cc4c2cc1OC)CN1CCC[C@H]1C3 | – | – | – | 6.57 µM and 0.776 µM | – | – | – | – | – | GI50 (MDA-N): 0.0817 µM and < 0.0129 µM
CC(=O)OC1(C(C)=O)CC2(c3ccccc3)OC1(c1ccccc1)c1ccccc12 (centres undefined) | > 100 µM | 22.2 µM | 33.3 µM | – | > 100 µM | 80.4 µM | > 100 | > 100 µM | > 100 | –
N#Cc1sc2nc3c(c(-c4ccccc4)c2c1N)CCCC3 | > 100 µM | > 100 µM | 92.2 µM | – | – | > 100 µM | > 100 | – | – | –
COc1cccc(NC(=O)/C(CS(=O)(=O)CCC(C(C)=O)C(C)=O)=N\NC(C)(C)C)c1 | > 100 µM | > 100 µM | – | – | > 100 µM | – | > 100 | > 100 µM | – | –
COc1cc2c(cc1O)CCN[C@@]21CS[C@H]2c3c(OC(C)=O)c(C)c4c(c3C(COC1=O)N1C2C2NC(Cc3cc(C)c(OC)c(O)c32)[C@@H]1O)OCO4 (some centres undefined) | 932 ng/mL | – | – | – | – | 4.5 ng/mL | – | – | – | outcome (RXF-631 renal): inactive; outcome (HOP-18 NSCLC): inactive; GI50 (M19-MEL melanoma): 4.5 ng/mL; GI50 (SNB-78 CNS): 0.00037 ng/mL and 4.5 ng/mL; outcome (LXFL 529 NSCLC): inactive; GI50 (DMS 273 small cell lung): 4.5 ng/mL
O=C1OC(c2ccccc2)=N/C1=C\c1ccccc1 | – | – | – | > 100 µM | – | – | – | – | – | –
CCCCCCNC(=O)CCN(C(=O)O)S(=O)(=O)c1ccc(NC(=O)c2ccccc2)cc1 | > 100 µM | > 55.2 µM | > 100 µM | – | > 100 µM | > 81.6 µM | > 100 | > 100 µM | – | –
CC(=O)[CH-]C(=O)c1ccccc1.CC(=O)[CH-]C(=O)c1ccccc1.Cl.[O-]CCc1ccccn1.[O-]CCc1ccccn1.[Ti+4] | – | – | – | – | 94.8 µM | 75.3 µM | 38 | > 100 µM | – | GI50 (HOP-18 NSCLC): 36.2 µM; GI50 (M19-MEL melanoma): 25.4 µM; GI50 (LXFL 529 NSCLC): 15.6 µM; GI50 (KM20L2 colon): 36.2 µM
Nc1ncc(CN2CCCC2)c(-c2ccccc2O)n1 | – | > 750 µM | > 750 µM | – | > 750 µM | > 750 µM | > 750 | > 750 µM | – | –
NN=C1/C(=C\c2ccccc2)CCC/C1=C/c1ccccc1 | > 100 µM | > 100 µM | – | – | > 100 µM | > 100 µM | > 100 | > 100 µM | – | –
NC1(C(=O)O)CCC(C(=O)O)CC1 (centres undefined) | > 100 µM | > 100 µM | > 100 µM | – | > 100 µM | > 100 µM | > 100 | > 100 µM | > 100 | –
